Experiments:
[1] = tested on: MOLT-4; experiment: NCI five-dose testing, MOLT-4; conditions: for GI50 / CC50: Homo sapiens; for GI50 / TGI: MOLT-4; for CC50: MOLT-4, read-out: LC50; for TGI: Leukemia
[2] = tested on: RPMI-8226; experiment: NCI five-dose testing, RPMI-8226; conditions: for GI50 / CC50: Homo sapiens; for GI50 / TGI: RPMI-8226; for CC50: RPMI-8226, read-out: LC50; for TGI: Leukemia
[3] = tested on: K-562; experiment: NCI five-dose testing, K-562; conditions: for GI50 / CC50: Homo sapiens; for GI50: K562; for CC50: K562, read-out: LC50; for TGI: Leukemia, K-562
[4] = tested on: HL-60(TB); experiment: NCI five-dose testing, HL-60(TB); conditions: for GI50 / CC50: Homo sapiens; for GI50: HL-60; for CC50: HL-60, read-out: LC50; for TGI: Leukemia, HL-60(TB)
[5] = tested on: NCI-H522; experiment: NCI five-dose testing, NCI-H522; conditions: for GI50 / CC50: Homo sapiens; for GI50 / TGI: NCI-H522; for CC50: NCI-H522, read-out: LC50; for TGI: Non-Small Cell Lung Cancer
[6] = tested on: MDA-MB-468; experiment: NCI five-dose testing, MDA-MB-468; conditions: for TGI: Breast Cancer; for TGI / GI50: MDA-MB-468; for GI50 / CC50: Homo sapiens; for CC50: MDA-MB-468, read-out: LC50
[7] = tested on: T-47D; experiment: NCI five-dose testing, T-47D; conditions: for TGI: Breast Cancer, T-47D; for GI50 / CC50: Homo sapiens, T47D; for CC50: read-out: LC50
[8] = tested on: CCRF-CEM; experiment: NCI five-dose testing, CCRF-CEM; conditions: for GI50 / CC50: Homo sapiens; for CC50: read-out: LC50; for TGI: Leukemia
[9] = tested on: KM12; conditions: Colon Cancer
[10] = tested on: KM12; experiment: cells; conditions: Homo sapiens; for GI50: KM12; for CC50: KM12, read-out: LC50
[11] = tested on: OVCAR-3; experiment: NCI five-dose testing, OVCAR-3; conditions: for GI50 / CC50: Homo sapiens; for GI50 / TGI: OVCAR-3; for CC50: OVCAR-3, read-out: LC50; for TGI: Ovarian Cancer
[12] = tested on: UO-31; conditions: Renal Cancer
[13] = tested on: NCI-H23; conditions: Non-Small Cell Lung Cancer
[14] = tested on: SNB-75; conditions: CNS Cancer
[15] = tested on: MCF7; experiment: NCI five-dose testing, MCF7; conditions: for TGI: Breast Cancer; for TGI / GI50: MCF7; for GI50 / CC50: Homo sapiens; for CC50: MCF7, read-out: LC50
[16] = tested on: OVCAR-8; experiment: cells; conditions: Homo sapiens
[17] = tested on: OVCAR-4; experiment: NCI five-dose testing, OVCAR-4; conditions: for GI50 / CC50: Homo sapiens; for GI50 / TGI: OVCAR-4; for CC50: OVCAR-4, read-out: LC50; for TGI: Ovarian Cancer
[18] = tested on: UO-31; experiment: cells; conditions: Homo sapiens
[19] = tested on: ACHN; experiment: cells; conditions: Homo sapiens
[20] = tested on: UACC-62; experiment: cells; conditions: Homo sapiens
[21] = tested on: UACC-62; conditions: Melanoma
[22] = tested on: OVCAR-8; conditions: Ovarian Cancer
[23] = tested on: ACHN; conditions: Renal Cancer
[24] = tested on: NCI-H23; experiment: cells; conditions: Homo sapiens
[25] = tested on: SNB-75; experiment: cells; conditions: Homo sapiens
[26] = tested on: SR; experiment: NCI five-dose testing, SR; conditions: for GI50 / CC50: Homo sapiens; for CC50: read-out: LC50; for TGI: Leukemia
[27] = tested on: SK-MEL-5; experiment: NCI five-dose testing, SK-MEL-5; type: cell-based; conditions: Melanoma; for GI50 / CC50: Homo sapiens; for CC50: read-out: LC50 (the source's name)
[28] = tested on: SK-MEL-2; experiment: NCI five-dose testing, SK-MEL-2; type: cell-based; conditions: Melanoma
[29] = tested on: IGROV1; experiment: NCI five-dose testing, IGROV1; type: cell-based; conditions: for GI50 / CC50: Homo sapiens, IGROV-1, Ovarian Cancer; for CC50: read-out: LC50 (the source's name); for TGI: Ovarian Cancer
[30] = tested on: RXF 393; experiment: NCI five-dose testing, RXF 393; type: cell-based; conditions: Renal Cancer
[31] = tested on: EKVX; experiment: NCI five-dose testing, EKVX; type: cell-based; conditions: Non-Small Cell Lung Cancer
[32] = Homo sapiens, read-out: LC50 (the source's name)

COc1cccc(OC)c1N(Cc1ccoc1)C(=O)C(=O)NC1=CC(=O)c2ccccc2C1=O
GI50 [1]: 462 nM
CC50 [1]: 3980 nM
TGI [1]: 1.57 × 10^−6
GI50 [2]: 1300 nM
CC50 [2]: 5120 nM
TGI [2]: 2.57 × 10^−6
GI50 [3]: 1460 nM
CC50 [3]: 5370 nM
TGI [3]: 2.80 × 10^−6
GI50 [4]: 282 nM
CC50 [4]: 1480 nM
TGI [4]: 5.69 × 10^−7
GI50 [5]: 1330 nM
CC50 [5]: 5140 nM
TGI [5]: 2.61 × 10^−6
TGI [6]: 8.99 × 10^−7
GI50 [6]: 251 nM
CC50 [6]: 3020 nM
TGI [7]: 2.81 × 10^−6
GI50 [7]: 1480 nM
CC50 [7]: 5340 nM
GI50 [8]: 437 nM
CC50 [8]: 3890 nM
TGI [8]: 1.48 × 10^−6
TGI [9]: 3.51 × 10^−6
GI50 [10]: 1250 nM
CC50 [10]: 9840 nM
GI50 [11]: 1180 nM
CC50 [11]: 4960 nM
TGI [11]: 2.42 × 10^−6

COC1C[C@H]2C[C@]34CC3[C@H]2[C@]23C4C4=C(C(=O)c5ccccc5C4=O)N2C(=O)C(=O)N13 (stereo partly drawn)
TGI [6]: 3.18 × 10^−6
GI50 [6]: 1310 nM
CC50 [6]: 7730 nM
GI50 [11]: 1490 nM
CC50 [11]: 19600 nM
TGI [11]: 4.93 × 10^−6

C=CCN(C(=O)C(=O)NC1=CC(=O)c2ccccc2C1=O)c1c(OC)cccc1OC
GI50 [1]: 441 nM
CC50 [1]: 4040 nM
TGI [1]: 1.62 × 10^−6
TGI [12]: 2.76 × 10^−6
TGI [13]: 2.79 × 10^−6
GI50 [2]: 1040 nM
CC50 [2]: 4740 nM
TGI [2]: 2.22 × 10^−6
TGI [14]: 2.93 × 10^−6
TGI [15]: 2.78 × 10^−6
GI50 [15]: 1450 nM
CC50 [15]: 5320 nM
GI50 [4]: 249 nM
CC50 [4]: 1520 nM
TGI [4]: 5.42 × 10^−7
GI50 ([16]; OVCAR-8): 1360 nM
CC50 ([16]; OVCAR-8, read-out: LC50): 5360 nM
GI50 [5]: 1250 nM
CC50 [5]: 5030 nM
TGI [5]: 2.51 × 10^−6
GI50 [17]: 1220 nM
CC50 [17]: 4980 nM
TGI [17]: 2.46 × 10^−6
GI50 ([18]; UO-31): 1440 nM
CC50 ([18]; UO-31, read-out: LC50): 5310 nM
TGI [6]: 8.97 × 10^−7
GI50 [6]: 275 nM
CC50 [6]: 3000 nM
GI50 [19]: 1350 nM
CC50 ([19]; read-out: LC50): 5210 nM
TGI [7]: 2.81 × 10^−6
GI50 [7]: 1480 nM
CC50 [7]: 5330 nM
GI50 [8]: 781 nM
CC50 [8]: 4550 nM
TGI [8]: 2.04 × 10^−6
GI50 ([20]; UACC-62): 1480 nM
CC50 ([20]; UACC-62, read-out: LC50): 5350 nM
TGI [9]: 2.28 × 10^−6
TGI [21]: 2.81 × 10^−6
TGI [22]: 2.70 × 10^−6
GI50 [10]: 626 nM
CC50 [10]: 6390 nM
TGI [23]: 2.66 × 10^−6
GI50 ([24]; NCI-H23): 1440 nM
CC50 ([24]; NCI-H23, read-out: LC50): 5390 nM
GI50 [11]: 1030 nM
CC50 [11]: 4730 nM
TGI [11]: 2.21 × 10^−6
GI50 ([25]; SNB-75): 1430 nM
CC50 ([25]; SNB-75, read-out: LC50): 5990 nM

COC1=C[C@H]2[C@H]3C[C@@H]1CN1C(=O)C(=O)N4C5=C(C(=O)c6ccccc6C5=O)[C@]3(OC)[C@]214
GI50 [2]: 803 nM
CC50 [2]: 4710 nM
TGI [2]: 2.05 × 10^−6
TGI [15]: 2.94 × 10^−6
GI50 [15]: 921 nM
CC50 [15]: 8870 nM
GI50 [26]: 1400 nM
CC50 [26]: 5310 nM
TGI [26]: 2.72 × 10^−6

C[C@]12C3=C(C(=O)c4ccccc4C3=O)N3C(=O)C(=O)N4C[C@H]5C[C@@]16CC6[C@@]5(C)[C@@]432 (stereo partly drawn)
GI50 [27]: 1300 nM
CC50 [27]: 7320 nM
TGI [27]: 3.08 × 10^−6
GI50 [4]: 267 nM
CC50 [4]: 3280 nM
TGI [4]: 1.06 × 10^−6
GI50 [17]: 1360 nM
CC50 [17]: 5170 nM
TGI [17]: 2.65 × 10^−6
TGI [6]: 1.55 × 10^−6
GI50 [6]: 384 nM
CC50 [6]: 4030 nM
GI50 ([28]; Homo sapiens): 1270 nM
CC50 [28, 32]: 5200 nM
TGI [28]: 2.57 × 10^−6
GI50 [8]: 1230 nM
CC50 [8]: 5000 nM
TGI [8]: 2.48 × 10^−6

C=CCN(C(=O)C(=O)NC1=CC(=O)c2ccccc2C1=O)c1ccsc1C(=O)OC
GI50 [1]: 1110 nM
CC50 [1]: 4810 nM
TGI [1]: 2.31 × 10^−6
GI50 [2]: 1470 nM
CC50 [2]: 5280 nM
TGI [2]: 2.79 × 10^−6
GI50 [3]: 1450 nM
CC50 [3]: 5280 nM
TGI [3]: 2.77 × 10^−6
GI50 [4]: 1080 nM
CC50 [4]: 4790 nM
TGI [4]: 2.27 × 10^−6
GI50 [5]: 1450 nM
CC50 [5]: 5280 nM
TGI [5]: 2.77 × 10^−6
TGI [6]: 9.41 × 10^−7
GI50 [6]: 226 nM
CC50 [6]: 3090 nM
TGI [7]: 2.61 × 10^−6
GI50 [7]: 1320 nM
CC50 [7]: 5140 nM
GI50 [8]: 1300 nM
CC50 [8]: 5070 nM
TGI [8]: 2.57 × 10^−6

COC1=C[C@H]2C3=C(C(=O)c4ccccc4C3=O)N3C(=O)C(=O)N(Cc4ccco4)[C@]23C=C1
GI50 [29]: 1380 nM
CC50 [29]: ≥ 100000 nM
TGI [29]: 6.38 × 10^−6
GI50 [27]: 1130 nM
CC50 [27]: 9080 nM
TGI [27]: 3.21 × 10^−6
TGI [6]: 1.35 × 10^−6
GI50 [6]: 177 nM
CC50 [6]: 7960 nM

C=CCCOC1=C[C@H]2C3=C(C(=O)c4ccccc4C3=O)N3C(=O)C(=O)N(Cc4ccc(C)cc4)[C@]23C=C1
GI50 [26]: 862 nM
CC50 [26]: ≥ 100000 nM
TGI [26]: 1.00 × 10^−4
GI50 [17]: 875 nM
CC50 [17]: ≥ 100000 nM
TGI [17]: 7.04 × 10^−6
TGI [6]: 6.86 × 10^−7
GI50 [6]: 20.9 nM
CC50 [6]: ≥ 100000 nM

COC1=CC2C3=C(C(=O)c4ccccc4C3=O)N3C(=O)C(=O)N(Cc4ccsc4)[C@]23C=C1 (stereo partly drawn)
GI50 [29]: 1270 nM
CC50 [29]: 70500 nM
TGI [29]: 1.40 × 10^−5
TGI [15]: 5.88 × 10^−6
GI50 [15]: 1260 nM
CC50 [15]: 25200 nM
GI50 [27]: 10 nM
CC50 [27]: 6040 nM
TGI [27]: 2.16 × 10^−6
TGI [6]: 8.16 × 10^−7
GI50 [6]: 113 nM
CC50 [6]: 9320 nM
GI50 ([30]; Homo sapiens): 1430 nM
CC50 [30, 32]: 9920 nM
TGI [30]: 3.76 × 10^−6
GI50 ([31]; Homo sapiens): 1110 nM
CC50 [31, 32]: 25700 nM
TGI [31]: 5.75 × 10^−6

O=C1C2=C(C(=O)c3ccccc31)N1C(=O)N(Cc3ccccc3)C[C@@]13C=C[C@@H]2O3
TGI [6]: 1.59 × 10^−6
GI50 [6]: 472 nM
CC50 [6]: 4080 nM
TGI [7]: 3.26 × 10^−6
GI50 [7]: 1390 nM
CC50 [7]: 7640 nM

O=C1C=C(NC(=O)[C@H](Cc2ccccc2)n2cccc2)C(=O)c2ccccc21
GI50 [1]: 685 nM
CC50 [1]: 4290 nM
TGI [1]: 1.84 × 10^−6
TGI [7]: 2.74 × 10^−6
GI50 [7]: 1420 nM
CC50 [7]: 5260 nM
GI50 [8]: 1110 nM
CC50 [8]: 4840 nM
TGI [8]: 2.32 × 10^−6
